Test results from ChEMBL document CHEMBL3352398, “2-(2-Bromophenyl)-formononetin and 2-heptyl-formononetin are PPARγ partial agonists and reduce lipid accumulation in 3T3-L1 adipocytes” (Bioorg Med Chem, 2014).
Activity calls are given as the source filed them. No cut-off for these calls is given here.

What was measured:
[1] = test system: 3T3-L1; assay: Effect on adipogenesis in mouse 3T3L1 cells assessed as reduction in Cebpa gene expression at 5 to 50 uM after 8 days by real time quantitative PCR analysis relative to vehicle-treated control; type: functional, cell-based
[2] = target: T1, Peroxisome proliferator-activated receptor gamma (Mus musculus) (UniProt P37238); assay: Agonist activity at PPAR-gamma in mouse embryo fibroblast by transactivation assay relative to rosiglitazone
T1 sequence (whole entry): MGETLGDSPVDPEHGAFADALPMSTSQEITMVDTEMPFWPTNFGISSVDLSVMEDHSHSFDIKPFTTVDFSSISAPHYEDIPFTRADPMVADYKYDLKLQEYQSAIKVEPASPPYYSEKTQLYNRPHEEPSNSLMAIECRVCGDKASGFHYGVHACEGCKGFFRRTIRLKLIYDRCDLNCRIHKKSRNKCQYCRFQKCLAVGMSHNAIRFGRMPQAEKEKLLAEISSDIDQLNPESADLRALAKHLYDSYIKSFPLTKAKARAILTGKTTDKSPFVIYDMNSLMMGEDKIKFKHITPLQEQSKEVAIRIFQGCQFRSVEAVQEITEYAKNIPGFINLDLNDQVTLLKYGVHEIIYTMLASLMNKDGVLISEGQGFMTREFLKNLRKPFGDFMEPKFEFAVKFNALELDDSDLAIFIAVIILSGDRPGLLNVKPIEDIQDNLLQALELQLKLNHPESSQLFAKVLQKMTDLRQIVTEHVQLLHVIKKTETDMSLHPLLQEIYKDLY

[3] = test system: 3T3-L1; assay: Reduction in triglyceride release in mouse 3T3L1 cells at 50 uM after 48 hrs by fluorescence-based AdipoRed assay; type: functional, cell-based
[4] = test system: 3T3-L1; assay: Induction of lipolysis in mouse 3T3L1 cells assessed as up-regulation of Atgl gene exression by real time-qPCR analysis; type: functional, cell-based
[5] = test system: 3T3-L1; assay: Effect on adipogenesis in mouse 3T3L1 cells assessed as reduction in Srebf1 gene expression at 5 to 50 uM after 4 days by real time quantitative PCR analysis relative to vehicle-treated control; type: functional, cell-based
[6] = test system: 3T3-L1; assay: Effect on adipogenesis in mouse 3T3L1 cells assessed as reduction in Cebpa gene expression at 5 to 50 uM after 4 days by real time quantitative PCR analysis relative to vehicle-treated control; type: functional, cell-based
[7] = test system: 3T3-L1; assay: Induction of lipolysis in mouse 3T3L1 cells assessed as up-regulation of Acox1 gene exression by real time-qPCR analysis; type: functional, cell-based
[8] = test system: 3T3-L1; assay: Effect on adipogenesis in mouse 3T3L1 cells assessed as reduction in Pparg gene expression at 5 to 50 uM after 4 days by real time quantitative PCR analysis relative to vehicle-treated control; type: functional, cell-based
[9] = target: T2, Peroxisome proliferator-activated receptor gamma (Homo sapiens, UniProt P37231); assay: Competitive binding to human GST-tagged PPAR-gamma by TR-FRET assay
T2 sequence (P37231 whole entry): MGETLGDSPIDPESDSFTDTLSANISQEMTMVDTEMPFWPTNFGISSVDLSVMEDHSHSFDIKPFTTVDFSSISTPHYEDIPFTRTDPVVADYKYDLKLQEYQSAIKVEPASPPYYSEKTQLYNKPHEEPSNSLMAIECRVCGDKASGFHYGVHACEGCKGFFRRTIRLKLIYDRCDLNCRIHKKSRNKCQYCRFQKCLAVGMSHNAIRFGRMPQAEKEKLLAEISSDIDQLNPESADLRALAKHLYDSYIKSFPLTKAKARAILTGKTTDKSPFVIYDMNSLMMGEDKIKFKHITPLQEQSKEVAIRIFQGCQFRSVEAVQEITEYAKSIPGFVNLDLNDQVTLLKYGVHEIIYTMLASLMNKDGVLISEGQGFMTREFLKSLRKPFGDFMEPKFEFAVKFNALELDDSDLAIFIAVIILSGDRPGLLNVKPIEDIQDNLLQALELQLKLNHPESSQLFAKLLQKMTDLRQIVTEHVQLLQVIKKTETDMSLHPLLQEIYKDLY

[10] = target: T3, Peroxisome proliferator-activated receptor delta (Homo sapiens) (UniProt Q03181); assay: Agonist activity at PPAR-delta (unknown origin) by transactivation assay
T3 sequence (whole entry): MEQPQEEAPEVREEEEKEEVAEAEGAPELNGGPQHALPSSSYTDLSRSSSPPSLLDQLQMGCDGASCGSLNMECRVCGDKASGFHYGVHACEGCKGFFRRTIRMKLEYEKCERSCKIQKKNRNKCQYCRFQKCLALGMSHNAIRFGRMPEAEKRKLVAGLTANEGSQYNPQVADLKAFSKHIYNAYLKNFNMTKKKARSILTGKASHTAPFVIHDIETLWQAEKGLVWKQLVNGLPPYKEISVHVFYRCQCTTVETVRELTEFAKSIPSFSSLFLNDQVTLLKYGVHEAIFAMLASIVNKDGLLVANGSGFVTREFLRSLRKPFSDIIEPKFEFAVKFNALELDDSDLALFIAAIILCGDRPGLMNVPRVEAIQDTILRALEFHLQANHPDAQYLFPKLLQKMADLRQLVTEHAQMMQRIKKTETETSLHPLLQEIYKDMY

[11] = test system: 3T3-L1; assay: Reduction of adipogenesis in mouse 3T3L1 cells assessed as decrease in lipid accumulation measured on day 8 by oil red o assay; type: functional, cell-based
[12] = target: T1, Peroxisome proliferator-activated receptor gamma (Mus musculus); assay: Agonist activity at PPAR-gamma in mouse embryo fibroblast at 5 to 50 uM by transactivation assay relative to rosiglitazone

For `CCCCCCCc1oc2cc(O)ccc2c(=O)c1-c1ccc(OC)cc1`, the Activity [1] was “Dose-dependent effect”, the Activity [2] was “Dose-dependent effect” and the Activity [3] was “Active”. For the same compound, the Activity [4] was “Active”, the Activity [5] was “Dose-dependent effect” and the Activity [6] was “Dose-dependent effect”. For the same compound, the Activity [7] was “Active”, the Activity [8] was “Dose-dependent effect” and the IC50 [9] was 5 µM. The Activity [10] was “inactive”, the Activity [11] was “Dose-dependent effect” and the Activity [12] was 33%.
